Laboratory results from publication PMC10353390, “Biological and Structural Analyses of New Potent Allosteric Inhibitors of HIV-1 Integrase” (Antimicrobial Agents and Chemotherapy, 2023).
Where two headings read alike, the source gives them in different places.

Experiments:
[1] = test system: NL4-3 HIV-1 with INLAI-selected IN single point mutations; format: cell-based
[2] = test system: VSV-G-pseudotyped NL4-3Δenv-luc; experiment: microbe, parasite or virus in culture; format: cell-based, HIV-1
[3] = test system: recombinant NL4-3 viruses with polymorphisms at IN positions 124 and 125; experiment: Multiple-round infection of MT4 cells with recombinant NL4-3 viruses polymorphic at IN positions 124 and 125; format: cell-based, HIV-1
Procedure, shortened: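 EC50 fold change relative to wild-type TT NL4-3 was derived from CellTiter-Glo viability of exponentially growing MT4 cells (10^6/mL). Cells were exposed for 2 h, with compounds, to NL4-3 clones bearing one of 15 IN 124/125 variants at MOI 0.001.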

[4] = test system: lab-adapted and clinical HIV-1 isolates; experiment: Infection assays in primary T CD4+ lymphocytes; format: cell-based; conditions: Human immunodeficiency virus 1, Lymphocyte
NL4-3 HIV-1 strain = experiment: Multiple-round infection assay in MT4 cells, NL4-3; format: cell-based; conditions: MT4 cells
[5] = target: HIV-1 IN-LEDGF/p75 interaction (Human immunodeficiency virus type 1 group M subtype B, UniProt P12497); experiment: biochemical
Description: The INLAIs were tested for the ability to inhibit the HIV-1 IN-LEDGF/p75 interaction in a homogeneous time-resolved fluorescence (HTRF) assay. Our assays used either full-length IN and LEDGF/p75 proteins or their respective minimally sufficient interaction domains: the CCD of HIV-1 IN and the IBD of LEDGF/p75 (Table 1).
HTRF-based CCD-IBD interaction, IN-LEDGF/p75 interaction and IN multimerization assays were performed as described previously ([12]).

[6] = test system: HIV-1 strains resistant to INSTIs, NRTIs, NNRTIs or PIs; format: cell-based
Procedure, shortened: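 Cell viability (CellTiter-Glo luminescence) served as read-out in MT4 cells at 10^6/mL, infected 2 h at MOI 0.001 in presence of graded compound concentrations. Viruses: resistance-mutation recombinants in NL4-3 backbone plus resistant clinical isolates.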

[7] = target: CCD of HIV-1 IN and IBD of LEDGF/p75 (Human immunodeficiency virus type 1 group M subtype B, UniProt P12497); experiment: biochemical
[8] = Cytotoxicity assay in MT4 cells; format: cell-based; conditions: human, MT4 cells (proliferating human T-cell line), CellTiter-Glo
Description: Growth inhibition was monitored in a proliferating human T-cell line (MT4) with different concentrations of compounds, using the CellTiter-Glo luminescent reagent (Promega), as previously described ([12]).

[9] = test system: primary HIV-1 isolates with polymorphisms at IN positions 124 and 125; experiment: Multiple-round infection of MT4 cells with primary HIV-1 isolates polymorphic at IN positions 124 and 125; format: cell-based; conditions: primary isolate
Procedure, shortened: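 Antiviral potency read as protection of cell viability (CellTiter-Glo luminescence). Infection at MOI 0.001 lasted 2 h with compound present at a range of concentrations, using MT4 cells at 10^6/mL in exponential growth.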

HIV-1 IN = target: T1, HIV-1 IN (Human immunodeficiency virus type 1 group M subtype B, UniProt P12497); experiment: HTRF IN multimerization assay; format: biochemical; conditions: mean ± SD
T1 construct: made in house
Description: A key property of INLAIs is the ability to promote HIV-1 IN homo-multimerization ([39][–][42]). […] The maximal signal (plateau) in our IN aggregation assay corresponds to the highest HTRF signal increase under saturating INLAI concentration, relative to baseline level. Thus, MUT916, MUT884, MUT871, and MUT872 increased HIV-1 IN aggregation 3.7 to 4.4-fold, while BDM-2, BI-224436, and S-I-82 did so 5 to 6-fold (Table 1).

HXB2 HIV-1 strain = experiment: Multiple-round infection assay in MT4 cells, HXB2; format: cell-based; conditions: Human immunodeficiency virus 1, HXB2; multiple-round infection, MT4 cells; mean ± SD, n > 5; read-out: EC50 HXB2
Procedure, shortened: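 Antiviral read-out was CellTiter-Glo luminescent viability of exponentially growing MT4 cells (10^6/mL). Cells were exposed to HIV-1 for 2 h at an MOI of 0.001 while compound was present at varying concentrations.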

[10] = INSTI-resistant, NL4-3 background

## Cc1ccc(C2CC2)c(-c2ccc3c(c2C)CCCO3)c1[C@H](OC(C)(C)C)C(=O)O [MUT871]
[1]
  EC50 fold change compared to wild type NL4-3, A128T: 2
  EC50 fold change compared to wild type NL4-3, H171Q: 6
  EC50 fold change compared to wild type NL4-3, N222K: 3
  EC50 fold change compared to wild type NL4-3, T174I: 323
  EC50 fold change compared to wild type NL4-3, Y99H: 4
[2]
  EC50 ratio (single/multiple-round infection): 203
[2]; Human immunodeficiency virus 1, NL43, MT4, read-out: EC50 in single-round infection
  EC50: 630 ± 10 nM
[3]; recombinant NL4-3, IN 124/125 AA
  Fold change in EC50 relative to parental NL4-3, AA: 1
[3]; recombinant NL4-3, IN 124/125 AM
  Fold change in EC50 relative to parental NL4-3, AM: 0.4
[3]; recombinant NL4-3, IN 124/125 AT
  Fold change in EC50 relative to parental NL4-3, AT: 1
[3]; recombinant NL4-3, IN 124/125 AV
  Fold change in EC50 relative to parental NL4-3, AV: 1
[3]; recombinant NL4-3, IN 124/125 GA
  Fold change in EC50 relative to parental NL4-3, GA: 3
[3]; recombinant NL4-3, IN 124/125 GT
  Fold change in EC50 relative to parental NL4-3, GT: 2
[3]; recombinant NL4-3, IN 124/125 NA
  Fold change in EC50 relative to parental NL4-3, NA: 2
[3]; recombinant NL4-3, IN 124/125 NT
  Fold change in EC50 relative to parental NL4-3, NT: 1
[3]; recombinant NL4-3, IN 124/125 NV
  Fold change in EC50 relative to parental NL4-3, NV: 1
[3]; recombinant NL4-3, IN 124/125 SA
  Fold change in EC50 relative to parental NL4-3, SA: 1
[3]; recombinant NL4-3, IN 124/125 ST
  Fold change in EC50 relative to parental NL4-3, ST: 1
[3]; recombinant NL4-3, IN 124/125 TA
  Fold change in EC50 relative to parental NL4-3, TA: 1
[3]; recombinant NL4-3, IN 124/125 TM
  Fold change in EC50 relative to parental NL4-3, TM: 0.3
[3]; recombinant NL4-3, IN 124/125 TV
  Fold change in EC50 relative to parental NL4-3, TV: 1
[4]; read-out: EC50 33913N (B)
  EC50: 1.5 ± 0.6 nM
[4]; read-out: EC50 HXB2 (B)
  EC50: 1.8 ± 0.3 nM
[4]; read-out: EC50 KER2008 (A)
  EC50: 6.4 ± 1.3 nM
[4]; read-out: EC50 NL4-3 (B)
  EC50: 2.8 ± 0.5 nM
[4]; read-out: EC50 NP1525 (CRF01_AE)
  EC50: 3.5 ± 0.6 nM
[4]; read-out: EC50 NP1538 (B)
  EC50: 4 ± 2.3 nM
NL4-3 HIV-1 strain; Human immunodeficiency virus 1, NL43, multiple-round infection, from dose response curves, read-out: EC90 NL4-3
  EC90: 4.6 ± 1.6 nM
NL4-3 HIV-1 strain; Human immunodeficiency virus 1, NL43, multiple-round infection, mean ± SD, n > 5, read-out: EC50 NL4-3
  EC50: 3.1 ± 1 nM
NL4-3 HIV-1 strain
  Selectivity index CC50/EC50 NL4-3: 14,838
[5]
  IC50: 14 ± 5 nM
[6]; [10]
  Fold change in EC50 relative to NL4-3, E92Q: 1
  Fold change in EC50 relative to NL4-3, G140S: 1
  Fold change in EC50 relative to NL4-3, G140S/Q148H: 1
  Fold change in EC50 relative to NL4-3, N155H: 1
  Fold change in EC50 relative to NL4-3, Q148H: 1
  Fold change in EC50 relative to NL4-3, Y143R: 1
[6]; NRTI-resistant clone
  Fold change in EC50 relative to NL4-3, NLAY351717: 1
[6]; NRTI/NNRTI-resistant clone
  Fold change in EC50 relative to NL4-3, NLAY351753: 1
[6]; NRTI/NNRTIs group, NL4-3 background
  Fold change in EC50 relative to NL4-3, K103N/Y181C: 1
[6]; PI-resistant virus
  Fold change in EC50 relative to NL4-3, ARP-4595: 1
  Fold change in EC50 relative to NL4-3, ARP-4596: 1
  Fold change in EC50 relative to NL4-3, ARP-11801: 1
  Fold change in EC50 relative to NL4-3, ARP-11803: 1
  Fold change in EC50 relative to NL4-3, ARP-11807: 1
  Fold change in EC50 relative to NL4-3, ARP-11808: 1
[7]
  IC50: 32 ± 14 nM
[8]
  CC50: 46000 ± 11000 nM
[9]; IN 124/125 AA
  Fold change in EC50 relative to parental NL4-3, CAM2BBY (CRF02): 2
  Fold change in EC50 relative to parental NL4-3, E0836M4 (D): 2
  Fold change in EC50 relative to parental NL4-3, KER2008 (A): 1
  Fold change in EC50 relative to parental NL4-3, NP1525 (CRF01): 1
  Fold change in EC50 relative to parental NL4-3, NP1695 (CRF02): 3
  Fold change in EC50 relative to parental NL4-3, TZA125 (C): 1
[9]; IN 124/125 GA
  Fold change in EC50 relative to parental NL4-3, KSM4030 (A): 2
  Fold change in EC50 relative to parental NL4-3, vGA (C): 5
[9]; IN 124/125 NA
  Fold change in EC50 relative to parental NL4-3, 99ET14 (C): 2
  Fold change in EC50 relative to parental NL4-3, NP1538 (B): 2
  Fold change in EC50 relative to parental NL4-3, vNA_1 (B): 3
  Fold change in EC50 relative to parental NL4-3, vNA_2 (CRF02): 3
[9]; IN 124/125 NV
  Fold change in EC50 relative to parental NL4-3, vNV (B): 3
[9]; IN 124/125 SA
  Fold change in EC50 relative to parental NL4-3, vSA_1 (B): 4
  Fold change in EC50 relative to parental NL4-3, vSA_2 (CRF02): 3
[9]; IN 124/125 TA
  Fold change in EC50 relative to parental NL4-3, vTA_1 (B): 2
  Fold change in EC50 relative to parental NL4-3, vTA_2 (CRF02): 2
HIV-1 IN; concentration for 50% maximum activation of multimerization
  AC50: 31 ± 20 nM
HIV-1 IN; maximum multimerization reached versus baseline
  IN multimerization Plateau: 440 ± 53%
HXB2 HIV-1 strain
  EC50: 1.4 ± 0.3 nM
